Test results published in the NIST ThermoML archive (doi:10.1016/j.fluid.2013.06.050).

Assays:
[1] = xn = mol fraction of the nth substance listed; details: 298.15 K, 101 kPa, Liquid
[2] = refractive index (Na D-line) (dimensionless); xn = mol fraction of the nth substance listed; details: 298.15 K, 101 kPa, Liquid, Standard Abbe refractometry

OCCCCO [1,4-butanediol] + C[N+](C)(C)CCO.[Cl-]
[1], vibrating tube
Details	mass density [kg/m3]
x2 = 0.25	1061
x2 = 0.28	1067
x2 = 0.34	1073.1

[2]
Details	refractive index
x2 = 0.25	1.4656
x2 = 0.28	1.468
x2 = 0.34	1.4718

CCN(CC)CCO.Cl [2-(diethylamino)ethanol hydrochloride] + OCC(O)CO
[1], vibrating tube
Details	mass density [kg/m3]
x1 = 0.2	1220.4
x1 = 0.25	1205.7
x1 = 0.34	1183.6

[2]
Details	refractive index
x2 = 0.2	1.4812
x2 = 0.25	1.4825
x2 = 0.34	1.4853

CCN(CC)CCO.Cl [2-(diethylamino)ethanol hydrochloride] + OCCO
[1], Vibrating tube method
Details	mass density [kg/m3]
x1 = 0.2	1103.7
x1 = 0.25	1101.8
x1 = 0.28	1100.6

[2]
Details	refractive index
x1 = 0.2	1.4574
x1 = 0.25	1.462
x1 = 0.28	1.465

C[N+](C)(C)CCO.[Cl-] [choline chloride] + OCC(O)CO
[1], vibrating tube
Details	mass density [kg/m3]
x1 = 0.25	1203.5
x1 = 0.34	1192.4
x1 = 0.5	1162.2

[2]
Details	refractive index
x1 = 0.25	1.4818
x1 = 0.34	1.4852
x1 = 0.5	1.491

C[N+](C)(C)CCO.[Cl-] [choline chloride] + OCCO
[1], vibrating tube
Details	mass density [kg/m3]
x1 = 0.28	1117.3
x1 = 0.34	1117.7
x1 = 0.36	1118.4

[2]
Details	refractive index
x1 = 0.28	1.4611
x1 = 0.34	1.465
x1 = 0.36	1.4678

C[P+](c1ccccc1)(c1ccccc1)c1ccccc1.[Br-] [methyltriphenylphosphonium bromide] + OCC(O)CO
[1], Vibrating tube method
Details	mass density [kg/m3]
x1 = 0.2	1289.3
x1 = 0.25	1298
x1 = 0.34	1307.1

[2]
Details	refractive index
x1 = 0.2	1.5597
x1 = 0.25	1.5715
x1 = 0.34	1.5917

C[P+](c1ccccc1)(c1ccccc1)c1ccccc1.[Br-] [methyltriphenylphosphonium bromide] + OCCO
[1], Vibrating tube method
Details	mass density [kg/m3]
x1 = 0.16	1220.2
x1 = 0.2	1233
x1 = 0.25	1250.4

[2]
Details	refractive index
x1 = 0.16	1.5398
x1 = 0.2	1.553
x1 = 0.25	1.5678

C[P+](c1ccccc1)(c1ccccc1)c1ccccc1.[Br-] [methyltriphenylphosphonium bromide] + OCCOCCOCCO
[1], Vibrating tube method
Details	mass density [kg/m3]
x1 = 0.16	1186
x1 = 0.2	1199.2
x1 = 0.25	1216.4

[2]
Details	refractive index
x1 = 0.16	1.5178
x1 = 0.2	1.5263
x1 = 0.25	1.5417
